Measured values taken from the RepoRT retention time repository (doi:10.1021/acs.analchem.1c00972).

Legend:
[1] = RP, Waters ACQUITY UPLC BEH C18, 100 × 1 mm, 1.7 µm, 50 °C, 0.3 mL/min, estimated dead time 0.17 min; A: water + 0.1% formic acid + 20 mM ammonium formate; B: methanol + 0.1% formic acid + 20 mM ammonium formate; gradient (min/%B) 0/0 15/100 21/100 22/0 30/0; settings: stereoisomer not certain
[2] = RP, Waters ACQUITY UPLC BEH C18, 100 × 1 mm, 1.7 µm, 50 °C, 0.3 mL/min, estimated dead time 0.17 min; A: water + 10 mM ammonium bicarbonate; B: 10% water + 90% methanol + 10 mM ammonium bicarbonate; gradient (min/%B) 0/0 15/100 21/100 22/0 30/0; settings: stereoisomer not certain

Row | LC retention time [1] | LC retention time [2] | SMILES
1 | 11.4 min | 11.6 min | Nc1c(Cl)cnn(-c2ccccc2)c1=O [iso-Chloridazon]
2 | 9.29 min | 9.4 min | Cc1cc(=O)oc2cc(N)ccc12 [7-Amino-4-methylcoumarin]
3 | 12.6 min | 12.9 min | CCc1cccc(C)c1N1C(=O)COCC1C (stereo not given) [Metolachlor-morpholinone]
4 | 8.31 min | 8.38 min | Clc1ccccn1 [2-Chloropyridine]
5 | 12 min | 12.2 min | CC12C=CC(=O)C=C1CCC1C2C(=O)CC2(C)C1CCC2(O)C(=O)CO (stereo not given) [Prednisone]
6 | 10 min | 10.1 min | Cc1cccc(Cl)c1NC(=O)N(C)C [3-(2-CHLORO-6-METHYLPHENYL)-1,1-DIMETHYLUREA]
7 | 6.53 min | 12.5 min | CCCN(CCC)CCC [Tripropylamine]
8 | 8.94 min | 6.65 min | CN(Cc1nc2c(N)nc(N)nc2[nH]c1=O)c1ccc(C(=O)NC(CCC(=O)O)C(=O)O)cc1 (stereo not given) [7-Hydroxymethotrexat]
9 | 11.4 min | 10.6 min | COCC(C)N(C(=O)CS(=O)CC(=O)O)c1c(C)csc1C (stereo not given) [Dimethenamid M31]
10 | 16.2 min | 19.2 min | CCOC1C(OC)C(C)OC(OC2CC3CCC4C5CC(=O)OC(CC)CCCC(OC6CCC(N(C)C)C(C)O6)C(C)C(=O)C5=CC4C3C2)C1OC (stereo not given) [Spinetoram]
11 | 12.6 min | 12.9 min | COCN(COC)c1nc(N(COC)COC)nc(N(COC)COC)n1 [Hexa(methoxymethyl)melamine]
12 | 11.9 min | 13.7 min | CC12CC3CC(C)(C1)CC(N)(C3)C2 [Memantine]
13 | 16.5 min | 16.9 min | CCCCCCCCSCCOCCO [2(2(octylsulfanyl)ethoxy)ethanol]
14 | 15.5 min | 15.9 min | O=C(c1ccccc1)C1CCCCC1 [Cyclohexylphenylketone]
15 | 13.9 min | 16.7 min | Clc1ccccc1C(c1ccccc1)(c1ccccc1)n1ccnc1 [Clotrimazole]
16 | 11.4 min | 15.2 min | CCCCNc1ccc(C(=O)OCCN(C)C)cc1 [Tetracain]
17 | 14 min | 18.7 min | CN(CC=CC#CC(C)(C)C)Cc1cccc2ccccc12 [Terbinafine]
18 | 13.9 min | 14.2 min | C#CC1(O)CCC2C3CCC4=CC(=O)CCC4C3CCC21C (stereo not given) [Norethindrone]
19 | 14.5 min | 14.8 min | CC(=O)C1(O)CCC2C3CCC4=CC(=O)CCC4(C)C3CCC21C (stereo not drawn) [17alpha-Hydroxyprogesterone]
20 | 13.8 min | 11.9 min | COc1nc(NC(=O)NS(=O)(=O)c2ccccc2C(F)(F)F)nc(C(F)(F)F)n1 [Tritosulfuron]
21 | 6.31 min | 10.1 min | N#CC1CCCN1C(=O)CNC12CC3CC(CC(O)(C3)C1)C2 (stereo not given) [Vildagliptin]

Row | LC retention time [1] | LC retention time [2] | SMILES
22 | 9.28 min | 13.6 min | CN1CCc2cc3c(cc2C(=O)Cc2ccc4c(c2C1)OCO4)OCO3 [Protopin]
23 | 12.9 min | 16.3 min | CN1CCCC(n2nc(Cc3ccc(Cl)cc3)c3ccccc3c2=O)CC1 (stereo not given) [Azelastine]
24 | 10 min | 15.4 min | CC1CCN(CCCC(=O)c2ccc(F)cc2)CC1 [Melperon]
25 | 6.38 min | 8.56 min | CC(C)NCC(O)COc1ccc(CC(N)=O)cc1 (stereo not given) [Atenolol]
26 | 13.3 min | 16.1 min | CC(=O)N1CCN(c2ccc(OCC3COC(Cn4ccnc4)(c4ccc(Cl)cc4Cl)O3)cc2)CC1 (stereo not given) [Ketoconazole]
27 | 9.43 min | 9.61 min | CC(=O)OC1C(C)OC(n2cc(F)c(N)nc2=O)C1OC(C)=O (stereo not given) [2',3'-Di-O-acetyl-5'-deoxy-5-fluorocytidine]
28 | 16.2 min | 15.9 min | Nc1c(Cl)cc(C(F)(F)F)cc1Cl [2,6-Dichloro-4-trifluoromethylaniline]
29 | 11 min | 8.62 min | CCc1cccc(C)c1N(C(=O)CS(=O)(=O)O)C(C)C(=O)O (stereo not given)
30 | 15.4 min | 15.7 min | C#CC1(OC(C)=O)CCC2C3CCC4=CC(=O)CCC4C3CCC21C (stereo not given) [Norethisterone acetate]
31 | 15.1 min | 14.7 min | CCCCCCCCCCS(=O)(=O)O [1-Decanesulfonic acid]
32 | 10.7 min | 10.9 min | NC(=O)N1c2ccccc2CC(O)c2ccccc21 (stereo not given) [10,11-Dihydro-10-hydroxycarbamazepine]
33 | 11.7 min | 15.7 min | CN(C)CCOC(c1ccccc1)c1ccccc1 [Diphenhydramine]
34 | 7.5 min | 11.1 min | CC=C1C2C=C(C)CC1(N)c1ccc(=O)[nH]c1C2 (stereo not given) [Huperzin A]
35 | 9.01 min | 9.08 min | COCCOCCOCCOCCOC [Tetraglyme]
36 | 9.59 min | 8.22 min | COc1cc2ccc(=O)oc2c(O)c1OC [Fraxidin]
37 | 9.67 min | 6.8 min | O=c1c(OC2OC(CO)C(O)C(O)C2O)c(-c2ccc(O)c(O)c2)oc2cc(O)cc(O)c12 (stereo not given) [Hyperoside]
38 | 6.51 min | 6.82 min | CC=C1CC2(CO)OC2(C)C(=O)OCC2=CC[N+]3([O-])CCC(OC1=O)C23 (stereo not given) [Erucifoline N-oxide]
39 | 11.2 min | 13.9 min | Cc1ccc(NC(=O)c2ccc(CN3CCN(C)CC3)cc2)cc1Nc1nccc(-c2cccnc2)n1 [Imatinib]
40 | 11.2 min | 11.4 min | CN1C(=O)CC(C)(c2ccccc2)C1=O (stereo not given) [Methsuximide]
41 | 11.6 min | 14 min | COc1cc2nc(N3CCN(C(=O)C4COc5ccccc5O4)CC3)nc(N)c2cc1OC (stereo not given) [Doxazosin]

Row | SMILES | LC retention time [1] | LC retention time [2]
42 | COc1ccc(-c2ccccc2)cc1NNC(=O)OC(C)C [Bifenazate] | 14.7 min | 15 min
43 | CC(C)(C)c1cc([N+](=O)[O-])cc([N+](=O)[O-])c1O [Dinoterb] | 15.7 min | 12.6 min
44 | CCC(=O)C(CC(C)N(C)C)(c1ccccc1)c1ccccc1 (stereo not given) [Methadone] | 13.1 min | 18.2 min
45 | Clc1ccccc1-c1nnc(-c2ccccc2Cl)nn1 [Clofentezine (Apolo)] | 15.9 min | 16.3 min
46 | CN1CCN=C(c2ccccc2)c2cc(Cl)ccc21 [Medazepam] | 11.4 min | 16.4 min
47 | CCOCN(C(=O)CCl)c1c(C)cccc1CC [Acetochlor] | 15 min | 15.3 min
48 | CCOP(=O)(OCC)OC(=CCl)c1ccc(Cl)cc1Cl [Chlorfenvinphos] | 15.8 min | 16.1 min
49 | CCOP(=O)(NC(C)C)Oc1ccc(S(C)(=O)=O)c(C)c1 (stereo not given) [Fenamiphos-sulfone] | 12.2 min | 12.4 min
50 | CCN(CC)c1nc(C)cc(OP(=S)(OC)OC)n1 [Pirimiphos-methyl] | 15.8 min | 16.3 min
51 | O=C(Oc1ccccc1)c1ccccc1C(=O)Oc1ccccc1 [Diphenylphthalate] | 15.7 min | 16 min
52 | Oc1cc(Cl)c(Cl)c(Cl)c1 [3,4,5-trichlorophenol] | 15.2 min | 14.2 min
53 | O=[N+]([O-])c1ccc(O)c([N+](=O)[O-])c1 [2,4-Dinitrophenol] | 9.71 min | 6.21 min
54 | CCOC(=O)C1(c2ccccc2)CCN(C)CC1 [Meperidine] | 9.63 min | 14.2 min
55 | CCOP(=S)(OCC)ON=C(C#N)c1ccccc1 [Phoxim] | 15.9 min | 14.4 min
56 | CCCCOC(=O)N(C)SN(C)C(=O)Oc1cccc2c1OC(C)(C)C2 [Furathiocarb] | 16.7 min | 17.1 min
57 | CC(=O)OC(C)(C)C=CC(=O)C(C)(O)C1C(O)CC2(C)C3CC=C4C(C=C(O)C(=O)C4(C)C)C3(C)C(=O)CC12C (stereo not given) [Cucurbitacin E] | 14.4 min | 14.7 min
58 | C=C1CCC2C(C=C(C)C(=O)C3(O)CC(C)C(O)C3C1O)C2(C)C (stereo not given) [Lathyrol] | 14.7 min | 15 min
59 | CC1CC2(OC2C)C(=O)OC2CCN3CC=C(COC(=O)C1(C)O)C23 (stereo not given) [Jacobine] | 6.52 min | 10.1 min
60 | CCN(CC)C(=O)SCc1ccc(Cl)cc1 [Thiobencarb] | 16 min | 16.4 min
61 | CC1CC2(OC2C)C(=O)OC2CC[N+]3([O-])CC=C(COC(=O)C1(C)O)C23 (stereo not given) [Jacobine N-oxide] | 6.84 min | 7.35 min
62 | OC(Cc1ccccc1Cl)(Cn1cncn1)C1(Cl)CC1 (stereo not given) [Prothioconazole-desthio] | 15 min | 15.3 min
63 | O=c1[nH]c2ccccc2n1CCCN1CCC(n2c(=O)[nH]c3cc(Cl)ccc32)CC1 [Domperidone] | 10.7 min | 14.8 min
64 | CN=CNc1ccc(C)cc1C [N-(2,4-Dimethylphenyl)-N-methyl-formamidine] | 7.83 min | 12.1 min
65 | CCC(C)(CC)c1cc(NC(=O)c2c(OC)cccc2OC)on1 [Isoxaben] | 14.4 min | 14.6 min
